From US9062051B2, “Compounds and pharmaceutical compositions thereof for the treatment of proliferative disorders” (GALAPAGOS NV, priority 2014, dated 2015) come the findings set out here.

Assay [1] addresses T1, EphB4 (UniProt Ref: Q541P7) (Homo sapiens, UniProt P54760).
T1 construct: purchased Reaction Biology
T1 sequence (P54760 16-987): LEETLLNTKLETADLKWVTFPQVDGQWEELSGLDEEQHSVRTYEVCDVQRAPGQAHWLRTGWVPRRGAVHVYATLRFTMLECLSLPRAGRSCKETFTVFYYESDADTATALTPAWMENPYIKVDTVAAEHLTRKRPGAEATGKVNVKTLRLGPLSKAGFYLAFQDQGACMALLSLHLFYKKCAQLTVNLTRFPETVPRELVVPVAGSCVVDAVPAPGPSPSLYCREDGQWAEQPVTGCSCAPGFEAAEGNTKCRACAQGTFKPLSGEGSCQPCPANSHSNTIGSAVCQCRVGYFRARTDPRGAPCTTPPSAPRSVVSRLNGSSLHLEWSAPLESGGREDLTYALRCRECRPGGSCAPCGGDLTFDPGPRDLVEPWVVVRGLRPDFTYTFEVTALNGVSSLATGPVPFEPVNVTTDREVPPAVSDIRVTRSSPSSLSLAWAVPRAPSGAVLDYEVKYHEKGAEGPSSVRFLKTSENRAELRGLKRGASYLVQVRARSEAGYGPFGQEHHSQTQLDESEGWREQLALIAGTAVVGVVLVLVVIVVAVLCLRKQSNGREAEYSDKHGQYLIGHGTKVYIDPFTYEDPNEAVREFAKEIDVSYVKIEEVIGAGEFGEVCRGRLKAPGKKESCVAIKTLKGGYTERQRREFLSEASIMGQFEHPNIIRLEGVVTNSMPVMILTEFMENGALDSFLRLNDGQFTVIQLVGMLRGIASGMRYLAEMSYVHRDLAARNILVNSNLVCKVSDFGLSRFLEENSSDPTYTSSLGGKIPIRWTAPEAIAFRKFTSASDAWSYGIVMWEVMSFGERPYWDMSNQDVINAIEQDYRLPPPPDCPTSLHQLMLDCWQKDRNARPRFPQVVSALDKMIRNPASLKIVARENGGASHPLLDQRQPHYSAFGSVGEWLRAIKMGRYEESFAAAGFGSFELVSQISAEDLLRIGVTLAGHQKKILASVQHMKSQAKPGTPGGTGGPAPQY
In words: EphB4 assay (Reaction Biology HotSpot radioactive kinase assay). Conditions: ATP 10 μM; read-out: EphB4 potency IC50. In kind it is biochemical. The protocol: Inhibition of EphB4 (UniProt Ref: Q541P7) by a test compound is determined by a commercially available Reaction Biology proprietary nanoliter radioactive HotSpot^SM assay (Reaction Biology, One great valley parkway, Suite 2, Malvern Pa., 19355, USA). The principle of the assay consists of the measurement of incorporated ^33P into poly[Glu:Tyr] (4:1) (0.2 mg/mL) when the substrate is phosphorylated by the enzyme using [^33P]-γ-ATP and ATP (10 μM).
To determine the IC50, a serial dilution of compound is tested starting from 10 or 3 μM (highest dilution) with a 1/3 dilution.

Assay [2] concerns the target T2, Recombinant EphA7 (Homo sapiens, UniProt Q15375).
T2 construct: purchased Carna 08-126
In words: EphA7 assay (33P incorporation into poly GT, filter plate). Format: biochemical. The protocol:
The principle of the assay consists of the measurement of incorporated ^33P into the substrate poly GT when phosphorylated by the enzyme EphA7 using [^33P]-γ-ATP and ATP. Unincorporated ^33P is removed by loading the samples on a filter plate (using a harvester, Perkin Elmer) and 6 subsequent washing steps. ^33P incorporated in polyGT is measured on a Topcount after addition of microscint to the filter plates (Perkin Elmer).
Recombinant EphA7 (Carna Cat#08-126, 2 ng per well) was incubated with 0.1 mg/mL Poly(Glu,Tyr)sodium salt (4:1), MW 20 000-50 000 (Sigma catalog number P0275) in kinase reaction buffer (10 mM MOPS pH 7.2, 5 mM DTT, 0.01% Triton-X100, 5 mM MnCl2, 0.5 mM Na3VO4, 5 mM beta-glycerolphosphate), 0.15 μM non-radioactive ATP, 0.125 μCi/25 μl ^33P-gamma-ATP (Perkin Elmer, catalog number NEG602K) final concentrations with or without 5 μL containing test compound or vehicle (DMSO, 1% final concentration), in a total volume of 25 μL, in a polypropylene 96-well plate (Greiner, V-bottom). After 90 min at 30° C., reactions were stopped by adding of 25 μL/well of 150 mM phosphoric acid. All of the terminated kinase reaction was transferred to prewashed (75 mM phosphoric acid) 96 well filter plates (Perkin Elmer catalog number 6005177) using a cell harvester (Perkin Elmer). Plates were washed 6 times with 300 μL per well of a 75 mM phosphoric acid solution and the bottom of the plates was sealed. 40 μL/well of Microscint-20 was added, the top of the plates was sealed and readout was performed using the Topcount (Perkin Elmer). The ability of a test compound to inhibit the kinase activity was determined using counts per minutes (cpm) measured by the Topcount as:
Cpm (cpd): cpm determined for sample with test compound present
Cpm (control): cpm determined for sample with positive control inhibitor (10 μM staurosporine)
Cpm (vehicle): cpm determined in the presence of vehicle (1% DMSO)
Dose dilution series were prepared for the compounds enabling the testing of dose-response effects in the EphA7 assay and the calculation of the IC50 for each compound. Each compound was routinely tested at concentration of 20 μM followed by a 1/5 serial dilution, 10 points in a final concentration of 1% DMSO. When potency of compound series increased, more dilutions may be prepared and/or the top concentration may be lowered (e.g. 5 μM, 1 μM).

Where [3] appears, read: EphA7 potency, 0.15 μM ATP, read-out: IC50.

pIC50: −log10 of the molar value. Like-named read-outs stand apart in the source and are kept apart here.

T2 sequence (Q15375 579-998 limits assumed): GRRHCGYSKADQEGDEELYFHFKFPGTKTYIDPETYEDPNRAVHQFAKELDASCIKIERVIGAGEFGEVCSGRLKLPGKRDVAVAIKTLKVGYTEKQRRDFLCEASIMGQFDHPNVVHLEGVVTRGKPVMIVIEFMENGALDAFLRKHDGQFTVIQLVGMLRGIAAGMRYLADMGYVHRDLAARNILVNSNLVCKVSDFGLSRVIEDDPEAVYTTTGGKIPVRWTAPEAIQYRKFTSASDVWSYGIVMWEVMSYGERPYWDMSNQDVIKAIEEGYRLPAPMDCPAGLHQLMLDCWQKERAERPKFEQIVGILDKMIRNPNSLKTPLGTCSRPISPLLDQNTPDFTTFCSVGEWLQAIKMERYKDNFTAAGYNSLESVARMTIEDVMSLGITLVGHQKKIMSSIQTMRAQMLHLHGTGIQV

In general, pIC50 refers to the IC50 on a negative log10 scale, so that one unit is a factor of ten. With `Cc1ccc(NC(=O)c2cccc(C(F)(F)F)c2)cc1-c1ccc2c(C(O)CN3CCOCC3)n[nH]c2n1` (centres unmarked) [Compound 2, N-{3-[3-(1-Hydroxy-2-morpholin-4-yl-ethyl)-1H-pyrazolo[3,4-b]pyridin-6-yl]-4-methyl-phenyl}-3-trifluoromethyl-benzamide], the pIC50 in assay [1] was 7.60 to 11.00.

Consider `Cc1cccc(C(=O)Nc2ccc(C)c(-c3ccc4c(C(O)CN5CCOCC5)n[nH]c4n3)c2)c1` (centres unmarked) [Compound 3, N-{3-[3-(1-Hydroxy-2-morpholin-4-yl-ethyl)-1H-pyrazolo[3,4-b]pyridin-6-yl]-4-methyl-phenyl}-3-methyl-benzamide], for which the negative logarithm of the IC50 (pIC50) in assay [2] (setting [3]) is less than 6.00; in assay [1], 7.60 to 11.00.

Turning to `COc1cc(OC)cc(C(=O)Nc2ccc(C)c(-c3ccc4c(C(O)CN5CCOCC5)n[nH]c4n3)c2)c1` (centres unmarked) [Compound 4, N-{3-[3-(1-Hydroxy-2-morpholin-4-yl-ethyl)-1H-pyrazolo[3,4-b]pyridin-6-yl]-4-methyl-phenyl}-3,5-dimethoxy-benzamide], the pIC50 was less than 6.00 in assay [2] (setting [3]) and 7.30 to 7.60 in assay [1].

Consider `Cc1ccc(C(=O)Nc2cccc(C(F)(F)F)c2)cc1-c1ccc2c(C(O)CN3CCOCC3)n[nH]c2n1` (centres unmarked) [Compound 5, 3-[3-(1-Hydroxy-2-morpholin-4-yl-ethyl)-1H-pyrazolo[3,4-b]pyridin-6-yl]-4-methyl-N-(3-trifluoromethyl-phenyl)-benzamide], for which the pIC50 in assay [2] (setting [3]) was 6.30 to 6.60; in assay [1], 7.30 to 7.60.

`Cc1ccc(NC(=O)c2cccc(N(C)C)c2)cc1-c1ccc2c(C(O)CN3CCOCC3)n[nH]c2n1` (centres unmarked) [Compound 6, 3-Dimethylamino-N-{3-[3-(1-hydroxy-2-morpholin-4-yl-ethyl)-1H-pyrazolo[3,4-b]pyridin-6-yl]-4-methyl-phenyl}-benzamide]: the pIC50 was less than 6.00 in assay [2] (setting [3]) and 7.30 to 7.60 in assay [1].

Turning to `COc1cc(OC)cc(C(=O)Nc2ccc(C)c(-c3ccc4c(C(C)O)n[nH]c4n3)c2)c1` (centres unmarked) [Compound 9, N-{3-[3-(1-Hydroxy-ethyl)-1H-pyrazolo[3,4-b]pyridin-6-yl]-4-methyl-phenyl}-3,5-dimethoxy-benzamide], the pIC50 was less than 6.00 in assay [2] (setting [3]) and 7.30 to 7.60 in assay [1].

`COc1cc(OC)cc(C(=O)Nc2ccc(C)c(-c3ccc4c(C)n[nH]c4n3)c2)c1` [Compound 11, 3,5-Dimethoxy-N-[4-methyl-3-(3-methyl-1H-pyrazolo[3,4-b]pyridin-6-yl)-phenyl]-benzamide]: the pIC50 in assay [2] (setting [3]) was less than 6.00; in assay [1] it was 7.60 to 11.00.

For `CCc1n[nH]c2nc(-c3cc(NC(=O)c4cc(OC)cc(OC)c4)cnc3C)ccc12` [Compound 13, N-[5-(3-Ethyl-1H-pyrazolo[3,4-b]pyridin-6-yl)-6-methyl-pyridin-3-yl]-3,5-dimethoxy-benzamide], the negative logarithm of the IC50 (pIC50) in assay [2] (setting [3]) is less than 6.00; in assay [1] it was 7.30 to 7.60.

For `Cc1cc(C)cc(C(=O)Nc2ccc(C)c(-c3ccc4c(CO)n[nH]c4n3)c2)c1` [Compound 16, N-[3-(3-Hydroxymethyl-1H-pyrazolo[3,4-b]pyridin-6-yl)-4-methyl-phenyl]-3,5-dimethyl-benzamide], the negative logarithm of the IC50 (pIC50) is less than 6.00 in assay [2] (setting [3]) and 7.60 to 11.00 in assay [1].

Take `COc1cc(OC)cc(C(=O)Nc2cnc(C)c(-c3ccc4c(C)n[nH]c4n3)c2)c1` [Compound 17, 3,5-Dimethoxy-N-[6-methyl-5-(3-methyl-1H-pyrazolo[3,4-b]pyridin-6-yl)-pyridin-3-yl]-benzamide]: the negative-log IC50 (pIC50) in assay [1] was 7.30 to 7.60.

`CCc1n[nH]c2nc(-c3cc(NC(=O)c4cc(C)cc(OCCN5CCOCC5)c4)ccc3C)ccc12` [Compound 20, N-[3-(3-Ethyl-1H-pyrazolo[3,4-b]pyridin-6-yl)-4-methyl-phenyl]-3-methyl-5-(2-morpholin-4-yl-ethoxy)-benzamide]: the pIC50 in assay [2] (setting [3]) is 6.00 to 6.30; in assay [1] it was 7.60 to 11.00.

As for `CCc1n[nH]c2nc(-c3cc(NC(=O)c4cc(C)cc(OCCOC)c4)ccc3C)ccc12` [Compound 21, N-[3-(3-Ethyl-1H-pyrazolo[3,4-b]pyridin-6-yl)-4-methyl-phenyl]-3-(2-methoxy-ethoxy)-5-methyl-benzamide], the pIC50 in assay [2] (setting [3]) was less than 6.00; in assay [1], 7.60 to 11.00.

For the compound `COc1cc(OC)cc(C(=O)Nc2ccc(C)c(-c3ccc4c(C5(O)CC5)n[nH]c4n3)c2)c1` [Compound 29, N-{3-[3-(1-Hydroxy-cyclopropyl)-1H-pyrazolo[3,4-b]pyridin-6-yl]-4-methyl-phenyl}-3,5-dimethoxy-benzamide], the pIC50 in assay [2] (setting [3]) is less than 6.00.

For `Cc1ccc(NC(=O)c2cccc(C(F)(F)F)c2)cc1-c1ccc2c(C(C)O)n[nH]c2n1` (centres unmarked) [Compound 35, N-{3-[3-(1-Hydroxy-ethyl)-1H-pyrazolo[3,4-b]pyridin-6-yl]-4-methyl-phenyl}-3-trifluoromethyl-benzamide], the pIC50 in assay [2] (setting [3]) was less than 6.00; in assay [1] it was 7.30 to 7.60.

Take `CCc1n[nH]c2nc(-c3cc(NC(=O)c4cc(OC)cc(C(F)(F)F)c4)cnc3C)ccc12` [Compound 49, N-[5-(3-Ethyl-1H-pyrazolo[3,4-b]pyridin-6-yl)-6-methyl-pyridin-3-yl]-3-methoxy-5-trifluoromethyl-benzamide]: the figures for the pIC50 in assay [2] (setting [3]) and in assay [1] were less than 6.00 and less than 7.00, respectively.

For `CCc1n[nH]c2nc(-c3cc(NC(=O)c4cc(C)cc(C)c4)cnc3C)ccc12` [Compound 50, N-[5-(3-Ethyl-1H-pyrazolo[3,4-b]pyridin-6-yl)-6-methyl-pyridin-3-yl]-3,5-dimethyl-benzamide], the pIC50 in assay [2] (setting [3]) is 6.00 to 6.30; in assay [1] it was 7.60 to 11.00.

In the case of `Cc1ccc(NC(=O)c2cccc(C(F)(F)F)c2)cc1-c1ccc2c([C@H](C)O)n[nH]c2n1` [Compound 55, N-{3-[3-((S)-1-Hydroxy-ethyl)-1H-pyrazolo[3,4-b]pyridin-6-yl]-4-methyl-phenyl}-3-trifluoromethyl-benzamide], the pIC50 in assay [2] (setting [3]) is 6.00 to 6.30; in assay [1], 7.60 to 11.00.

With `Cc1ccc(NC(=O)c2cccc(C(F)(F)F)c2)cc1-c1cc(C)c2c(N)n[nH]c2n1` [Compound A, N-(3-(3-amino-4-methyl-1H-pyrazolo[3,4-b]pyridin-6-yl)-4-methylphenyl)-3-(trifluoromethyl)benzamide], in assay [2] (comparative compounds, read-out: EphA7 potency IC50), the negative-log IC50 (pIC50) was less than 6.00.
